One compound from patent US20250304609A1, “POLYMORPHIC FORM OF CHALCONE GLYCOSIDE COMPOUND, AND PREPARATION METHOD AND APPLICATION THEREOF” (ZHEJIANG YONGNING PHARMACEUTICAL CO., LTD., priority 2022, published 2025) can be followed below.

Where “and” joins values, the source holds several entries; their conditions need not be identical. Equal entries are not always repeated.

For one series, the system named is H9c2 cells. As to the kind of experiment: Survival rate of H9c2 cells after oxygen-glucose deprivation/reperfusion (OGD/R). The following applies: 20, 40 and 80 μg/ml. The format is cell-based. As to the method: (§1) Establishment of cellular oxygen-glucose deprivation/reperfusion (OGD/R) models. […] ischemia was simulated by incubation in a three-gas incubator (95% N2, 5% CO2) using sugar-free culture medium for 8-h culture, followed by transfer to a normal CO2 incubator for 12-h culture to simulate reperfusion.

The test system of a further series is H9c2 cardiomyocytes. The series is described as follows: Hoechst 33342 staining method for cell apoptosis detection (OGD/R). Format: cell-based. As for the experimental part:
as §1
Hoechst 33342 staining method for cell apoptosis detection. H9c2 cardiomyocytes were inoculated into a 6-well plate at a density of 2×10^5 cells/well. When the cells were completely adhered to the wall and grew to an appropriate degree of confluence, the cells were divided into a control group, a YN17 80 μg/ml group, a model group, and an OGD/R+80 μg/ml group. In the blank group, 2 mL of a fresh culture medium was added to each well and cultured in a CO2 incubator. The same amount of sugar-free DMEM was added to each well in the model group. After culture in a three-gas incubator for 8 h, the sugar-free DMEM was replaced with a fresh culture medium and transferred to a CO2 incubator for additional 12-h culture. The administration group was pretreated with different concentrations of YN17 for 24 h before OGD/R modeling. […] After the treatment of each group, staining was performed according to the instructions of the Hoechst 33342 staining solution, and the nucleus morphology and fluorescence intensity of each group were observed under a fluorescence microscope.

Series [1] has as its system cerebral ischemia-reperfusion rat models. As to the kind of experiment: Cerebral ischemia-reperfusion (MCAO) rat model, different doses of YN17. Format: in vivo, rats. As for the experimental part:
Establishment of cerebral ischemia-reperfusion rat models. Rats were anesthetized with pentobarbital sodium (45 mg/kg), the neck skin was prepared, the surgical skin was disinfected with iodophor, the neck skin was cut in the middle, the neck muscles were separated, and the left common carotid artery (CCA) was separated until the branches of the internal carotid artery (ICA) and external carotid artery (ECA) were exposed. The proximal end of the common carotid artery was ligated, the distal end of the common carotid artery was clamped with an artery clip, an incision was made between the two ligated ends of the common carotid artery, the MCAO suture was inserted, and the suture was loosely ligated to the common carotid artery. The MCAO suture was inserted into the internal carotid artery, so that the suture reached the branches of the internal carotid artery to the middle cerebral artery (MCA), blocking the blood supply of the MCA and causing ischemia, the MCAO suture was fixed, and the surgical incision was sutured. After 1 h of ischemia, the MCAO suture was withdrawn into the common carotid artery to restore blood supply to the middle cerebral artery.
Drug administration. After the surgery, the rats were immediately injected with YN17 (5 mg/kg, 10 mg/kg and 20 mg/kg) via the tail vein, while the positive control group was injected with 3 mg/kg of edaravone via the tail vein. The rats were euthanized under anesthesia 24 hours after drug administration.
Animal neurobehavioral assessment. 24 hours after administration, the activity of the rats after landing was observed, and the behavior disorders of the rats were scored. The scoring method was as follows: • 0 points: no loss of neurological function and normal activity; • 1 point: failure to fully extend the left forepaw on the opposite side of the lesion; • 2 points: failure of the paralyzed side to resist the thrust from the opposite side; • 3 points: circling to the left side when crawling (tail-chasing sign); • 4 points: falling to the paralyzed side when shaking or walking; and • 5 points: trance or loss of consciousness.
Determination of the extent of cerebral infarction. The rats were euthanized under anesthesia 24 hours after drug administration. The brain was removed and rinsed with normal saline at 4° C. The brain was frozen at −80° C. for 10 min, and coronal slices with a thickness of 2 mm were cut from posterior to anterior, incubated in a 1% TTC solution for 10 min at 37° C., and fixed with formalin overnight after staining. The photos of the brain slices were taken and saved. The area of each brain slice and the area of the infarcted area were measured by Image Pro software, and the percentage of the area of focuses of infarct to the total area was calculated.

Series [2] concerns cerebral ischemia-reperfusion in rats. The series is described as follows: Cerebral ischemia-reperfusion rat model, comparative test of calcium salt YN17 and sodium salt YN17-ST. The format is in vivo. The following applies: 10 mg/kg tail vein after 1 h ischemia; 24 h; Mean ± SEM; model 51.37 ± 2.66. As for the experimental part:
Establishment of cerebral ischemia-reperfusion rat models. Rats were anesthetized with pentobarbital sodium (45 mg/kg), the neck skin was prepared, the surgical skin was disinfected with iodophor, the neck skin was cut in the middle, the neck muscles were separated, and the left common carotid artery (CCA) was separated until the branches of the internal carotid artery (ICA) and external carotid artery (ECA) were exposed. […]
Determination of the extent of cerebral infarction. […] The area of each brain slice and the area of the infarcted area were measured by Image Pro software, and the percentage of the area of focuses of infarct to the total area was calculated.
The models were established and administered according to the similar method described above (YN17 (10 mg/kg) and YN17-ST (10 mg/kg) were injected into the tail vein immediately after blood supply to the middle cerebral artery of the rats was restored, and 5% glucose was injected into the tail vein in the model group. The rats were euthanized under anesthesia 24 hours after drug administration, and the extent of cerebral infarction was measured. The results were as follows: […]

As to `O=C(/C=C/c1ccc(O)cc1)C1=C(O)C([C@@H]2O[C@H](CO)[C@@H](O)[C@H](O)[C@H]2O)=C([O-])[C@@](O)([C@@H]2O[C@H](CO)[C@@H](O)[C@H](O)[C@H]2O)C1=O.[Ca+2].[OH-]` [YN17, (S)-3,6-dihydroxy-4-((E)-3-(4-hydroxyphenyl)acryloyl)-5-oxo-6-((2R,3R,4S,5S,6R)-3,4,5-trihydroxy-6-(hydroxymethyl)tetrahydro-2H-pyran-2-yl)-2-((2S,3R,4R,5S,6R)-3,4,5-trihydroxy-6-(hydroxymethyl)tetrahydro-2H-pyran-2-yl)cyclohexyl-1,3-diene-1-hydroxycalcium], the “survival rate of cells” value in the series on H9c2 cells was “can improve the survival rate of cells in different degrees”. The “apoptosis characteristics of nuclei without OGD/R” value in the series on H9c2 cardiomyocytes (80 μg/ml group without OGD/R) is “no obvious apoptosis characteristics”. In the series with H9c2 cardiomyocytes (OGD/R + 80 μg/ml, 24 h pretreatment), the “number of densely and heavily stained cell nuclei (apoptosis)” value is reported as “significantly reduced”. In series [1] (5 mg/kg tail vein, 24 h after administration, 0-5 points, Mean ± SD, model 3.3 ± 0.7), this compound returned a Symptom score of 2.8 ± 1.0. The “content of GSH-px in serum” value in series [1] (5 mg/kg, 10 mg/kg and 20 mg/kg, 24 h after modeling, p<0.001) is “significantly increase”. The “content of SOD in serum” value in series [1] (10 mg/kg and 20 mg/kg, 24 h after modeling, p<0.001) was “significantly increase”. In series [2], the “Percentage of hemispheric tissue infarction (%)” value was 20.47% and 20.47 ± 3.56 %.
